Experimental data published in patent US20240376068A1, “SIGMA LIGAND COMPOUNDS AND USES THEREOF” (Minerva Neurosciences, Inc., priority 2020, published 2024).
pKi: −log10 of the molar value. Blank lines part the entries; values can stand above or below the compound they belong to.

Assays:
sigma 1 (h) = sigma 1 (h) (Homo sapiens (Human), UniProt Q99720); assay: Sigma-1 binding assay; conditions: [3H](+)pentazocine, Jurkat cells; read-out: Sigma-1 Ki
Procedure: (§1) Assays for determining Sigma-1 and Sigma-2 binding values were performed according to Ganapathy, M. E. et al. (1999), J. Pharmacol. Exp. Ther., 289:251-260.

Sigma 2 (h) = Sigma 2 (h) (Homo sapiens (Human), UniProt Q5BJF2); assay: Sigma-2 binding assay; conditions: [3H]DTG (+1 μM (+)pentazocine), Jurkat cells; read-out: Sigma-2 Ki
Chain of Sigma 2 (h) (Q5BJF2 whole entry): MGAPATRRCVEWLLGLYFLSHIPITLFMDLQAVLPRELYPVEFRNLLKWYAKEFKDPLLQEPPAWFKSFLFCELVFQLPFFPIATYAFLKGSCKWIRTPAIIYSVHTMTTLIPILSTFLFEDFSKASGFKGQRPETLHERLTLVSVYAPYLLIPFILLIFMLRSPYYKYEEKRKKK
Procedure: as §1

Chain of sigma 1 (h) (Q99720 whole entry): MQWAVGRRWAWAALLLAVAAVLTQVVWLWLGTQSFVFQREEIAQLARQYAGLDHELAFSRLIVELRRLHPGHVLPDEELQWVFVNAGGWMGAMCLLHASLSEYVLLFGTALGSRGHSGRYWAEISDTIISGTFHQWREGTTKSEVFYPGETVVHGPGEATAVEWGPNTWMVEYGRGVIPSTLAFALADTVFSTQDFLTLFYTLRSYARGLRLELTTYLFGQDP

pKi (sigma 1 (h)): 6.30 to 7.00 | pKi (Sigma 2 (h)): 7.30 to 8.30
Compound: COC(=O)CCN1CCN(c2ccc3c(c2)CN(C(=O)OCc2ccccc2)CC3(C)C)CC1 [Compound 3, benzyl 7-(4-(3-methoxy-3-oxopropyl)piperazin-1-yl)-4,4-dimethyl-3,4-dihydroisoquinoline-2(1H)-carboxylate]

pKi (sigma 1 (h)): < 6.30 | pKi (Sigma 2 (h)): 6.30 to 7.00
Compound: CC1(C)CN(C2CCCC2)Cc2cc(-c3ccc(C(F)(F)F)cc3)ccc21 [Compound 4, 2-cyclopentyl-4,4-dimethyl-7-(4-(trifluoromethyl)phenyl)-1,2,3,4-tetrahydroisoquinoline]

pKi (sigma 1 (h)): < 6.30 | pKi (Sigma 2 (h)): < 6.30
Compound: CCCN1Cc2cc(-c3ccc(C(F)(F)F)cc3)ccc2C(C)(C)C1 [Compound 6, 4,4-dimethyl-2-propyl-7-(4-(trifluoromethyl)phenyl)-1,2,3,4-tetrahydroisoquinoline]

pKi (sigma 1 (h)): 8.30 to 10.00 | pKi (Sigma 2 (h)): 7.30 to 8.30
Compound: CCCN1CCN(c2ccc3c(c2)CN(C(=O)OCc2ccccc2)CCC3(C)C)CC1 [Compound 8, benzyl 5,5-dimethyl-8-(4-propylpiperazin-1-yl)-1,3,4,5-tetrahydro-2H-benzo[c]azepine-2-carboxylate]

pKi (sigma 1 (h)): 7.30 to 8.30 | pKi (Sigma 2 (h)): 7.30 to 8.30
Compound: COC(=O)CCN1CCN(c2ccc3c(c2)CN(C(=O)OCc2ccccc2)CCC3(C)C)CC1 [Compound 9, benzyl 8-(4-(3-methoxy-3-oxopropyl)piperazin-1-yl)-5,5-dimethyl-1,3,4,5-tetrahydro-2H-benzo[c]azepine-2-carboxylate]

Further lines, the compound ahead of its results:

Compound: CN1CCN(c2ccc3c(c2)CN(C(=O)OCc2ccccc2)CC3(C)C)CC1 [Compound 1, benzyl 4,4-dimethyl-7-(4-methylpiperazin-1-yl)-3,4-dihydroisoquinoline-2(1H)-carboxylate]
pKi (sigma 1 (h)): 6.30 to 7.00 | pKi (Sigma 2 (h)): 6.30 to 7.00

Compound: CC1(C)CN(CCCO)Cc2cc(-c3ccc(C(F)(F)F)cc3)ccc21 [Compound 5, 3-(4,4-dimethyl-7-(4-(trifluoromethyl)phenyl)-3,4-dihydroisoquinolin-2(1H)-yl)propan-1-ol]
pKi (sigma 1 (h)): 6.30 to 7.00 | pKi (Sigma 2 (h)): 6.30 to 7.00

Compound: CN1CCN(c2ccc3c(c2)CN(C(=O)OCc2ccccc2)CCC3(C)C)CC1 [Compound 7, benzyl 5,5-dimethyl-8-(4-methylpiperazin-1-yl)-1,3,4,5-tetrahydro-2H-benzo[c]azepine-2-carboxylate]
pKi (sigma 1 (h)): 7.30 to 8.30 | pKi (Sigma 2 (h)): 6.30 to 7.00

Compound: CC1(C)CCN(CCCO)Cc2cc(-c3ccc(C(F)(F)F)cc3)ccc21 [Compound 11, 3-(5,5-dimethyl-8-(4-(trifluoromethyl)phenyl)-1,3,4,5-tetrahydro-2H-benzo[c]azepin-2-yl)propan-1-ol]
pKi (sigma 1 (h)): < 6.30 | pKi (Sigma 2 (h)): 6.30 to 7.00

Compound: CCCN1CCC(C)(C)c2ccc(-c3ccc(C(F)(F)F)cc3)cc2C1 [Compound 12, 5,5-dimethyl-2-propyl-8-(4-(trifluoromethyl)phenyl)-2,3,4,5-tetrahydro-1H-benzo[c]azepine]
pKi (sigma 1 (h)): < 6.30 | pKi (Sigma 2 (h)): 7.00 to 7.30
